One series concerns the target T1, AdipoR1-Δ88 (Homo sapiens, UniProt Q96A54).
T1 construct: made in house; host or cells: Sf9 insect cells (Bac-to-Bac baculovirus)
T1 sequence (Q96A54 89-375 limits assumed): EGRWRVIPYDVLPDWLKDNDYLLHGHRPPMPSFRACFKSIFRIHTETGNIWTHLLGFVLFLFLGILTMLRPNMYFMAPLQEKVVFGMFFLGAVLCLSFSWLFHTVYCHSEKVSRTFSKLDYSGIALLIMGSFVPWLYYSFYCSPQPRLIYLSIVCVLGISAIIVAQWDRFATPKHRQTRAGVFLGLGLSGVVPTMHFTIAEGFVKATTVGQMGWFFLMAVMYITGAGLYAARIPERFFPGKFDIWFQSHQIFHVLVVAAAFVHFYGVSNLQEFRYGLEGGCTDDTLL
Kind of series: Surface plasmon resonance binding to immobilized AdipoR1-Δ88. Particulars: for SPR screening of designed peptides, selection: Biacore T-200, selected versus ADP355 by concentration-dependent signal increase, dissociation rate and estimated Kd, 25 candidate peptides. As for the experimental part:
DNA gene fragment encoding AdipoR1 fused to an N-terminal flag tag was synthesized after codon optimization for insect cell expression (Integrated DNA Technologies). Full length AdipoR1 and AdipoR1-Δ88 were expressed in SF9 cell line using Bac-to-Bac Baculovirus system and purified following the procedure described by T. Tanabe et. al.. Briefly, 1 L SF9 cells infected with amplified baculovirus were cultured in SF-900 III SFM media (Thermo Fisher Scientific) for 3 days at 27°C. Harvested cells were disrupted by dounce homogenization, followed by centrifugation at 30,000 rpm for 2 hours. Collected raw membrane were washed with HEPES buffer and stored in -80°C after flash-freezing. Membranes were solubilized with 1% DDM (Anatrace) and recombinant AdipoR1-Δ88 was purified by using anti-flag tag antibody magnetic beads (Sigma). Eluted AdipoR1-Δ88 by flag peptide (Sigma) was further purified in 20 mM HEPES (pH7.4), 150 mM NaCl, 10% glycerol, 0.025% DDM, and 0.0001% CHS by Superdex 200 (GE Healthcare). The amount of purified AdipoR1-Δ88 was estimated by using Bradford staining.
In order to screen peptide library against AdipoR1, purified AdipoR1-Δ88 was immobilized onto S-series CM5 chip (GE Healthcare Life Science). Since AdipoR1-Δ88 was solubilized with a detergent-containing buffer solution, pH scouting solutions with various pH from 3.5 to 5.5 were prepared with the same detergent solution, 0.025% DDM and 0.0001% cholesteryl-hemi-succinate (CHS, Anatrace). At pH 5, AdipoR1-Δ88 was immobilized at around 4000 response unit using amine coupling method though EDC/NHS. After enough stabilization with running buffer consisting of 20 mM HEPES (pH7.4), 150 mM NaCl, 10% glycerol, 0.025% DDM, and 0.0001% CHS, serial concentrations from 1 to 100 μM were injected into reference and sample cells with 60-second contact time, 200-second dissociation time, and 30 μl/min flow rate at 4°C. The resulting sensorgrams were double-blanked by reference cell and buffer injection.

A further series deals with AdipoRs. The note with it: previous studies; cited from earlier work.
In series [1] the test system is AdipoR1-mediated AMPK activation (pAMPK Thr172) in differentiated C2C12 myotubes. Kind of series: AMPK activation in differentiated C2C12 myotubes (Western blot). Particulars: differentiated C2C12 myotubes, 0.8, 4 and 20 μM, in words. In kind it is cell-based, Mouse. The procedure: (§1) Mouse C2C12 myoblasts (American Type Culture Collection) were maintained in Dulbecco’s modified Eagle’s medium (DMEM) supplemented with 10% FBS. C2C12 myotube was obtained by culturing myoblasts in DMEM containing 2% horse serum for at least 5 days with daily media change. On the fifth day, differentiation of cells could be confirmed by multinucleated contracted myotubes. C2C12 myotubes were then treated with selected peptide candidates at indicated concentrations for 30 minutes. As a positive control, 2 μg/ml recombinant human globular adiponectin and indicated concentrations of ADP355 were used.
(§2) Cell lysates were subjected to SDS-PAGE and western blot analysis. Briefly, cells were lysed with protein lysis buffer (RIPA, Thermo) followed by heat denaturation. Five micrograms of whole cell proteins were applied to SDS-PAGE. After electrophoresis, the proteins were transferred onto PVDF membrane, followed by membrane blocking in TBS-T buffer containing 5% non-fat dry milk for 1 hour at room temperature. The membrane was probed with the following different primary antibodies: anti-phosphorylated-AMPK (Thr172) (Cell Signaling), anti-tAMPK (Cell Signaling), anti-pACC, and anti-GAPDH (Santa-Cruz). […] Signals from Western blot were quantified by using Image Lab Software 6.0 (Bio-Rad).
(In general: In western blotting, separated proteins are transferred to a membrane and probed.)

Another series can be described thus: Solubility of peptides. In kind it is physicochemical.
Series [2] relates to acetyl Co-A carboxylase (ACC) phosphorylation in differentiated C2C12 myotubes. Kind of series: ACC phosphorylation in differentiated C2C12 myotubes (Western blot). In kind it is cell-based, Mouse. The note with it: PEGylated BHD1028, Western blot, in words. As for the experimental part:
as §1, §2

Series [3] deals with T2, AdipoR1-Δ88 (adiponectin receptor 1 lacking the N-terminal 88 residues) (human, UniProt Q96A54 89-375).
T2 construct: Adiponectin receptor 1 (AdipoR1), human; N-terminal 88 residues deleted; gene synthesised, codon-optimised for insect cells; Kept in 0.025% DDM and 0.0001% CHS; The functional rows were done on mouse C2C12 or human HepG2 cells with their own AdipoR1; m1 stands there for AdipoR1; also called AdipR1-Δ88; source: SF9 cells (Bac-to-Bac baculovirus), solubilised with 1% DDM, purified (anti-flag …)
T2 sequence (looked up): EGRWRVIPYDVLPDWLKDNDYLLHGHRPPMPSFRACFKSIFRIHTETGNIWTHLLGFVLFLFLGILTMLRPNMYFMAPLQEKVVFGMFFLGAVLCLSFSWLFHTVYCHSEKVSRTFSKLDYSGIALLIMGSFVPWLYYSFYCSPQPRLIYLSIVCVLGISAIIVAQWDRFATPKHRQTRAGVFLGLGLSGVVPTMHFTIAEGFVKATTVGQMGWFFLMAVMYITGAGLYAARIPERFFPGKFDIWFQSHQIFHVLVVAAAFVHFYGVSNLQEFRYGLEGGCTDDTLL
Kind of series: SPR; AdipoR1-Δ88 immobilised on CM5 chip by amine coupling at pH 5 (around 4000 RU); peptides 1 to 100 μM injected, 60 s contact, 200 s dissociation, 30 μl/min, 4°C; 20 mM HEPES pH 7.4, 150 mM NaCl, 10% glycerol, 0.025% DDM, 0.0001% CHS; Kd from saturation curves of responses at equilibrium. Particulars: both partners purified. Background: In SPR one partner is held on a chip, and binding of the other changes the refractive index at the surface.

In brackets after ≈: the same amount, converted by molar mass. Where a SMILES comes first, the peptide text is derived from it. Where no end group is shown, it is not given here. [ ]: non-standard residue; d: D form. Nva = CCC[C@H](N)C(=O)O

In turn, `CCC[C@H](NC(=O)[C@@H]1CCCN1C(=O)[C@@H](NC(=O)[C@H](N)CC(N)=O)[C@@H](C)CC)C(=O)N[C@@H](CC(C)C)C(=O)N[C@@H](Cc1ccc(O)cc1)C(=O)N[C@H](CO)C(=O)N[C@@H](Cc1ccccc1)C(=O)N[C@@H](C)C(=O)N[C@H](CO)C(N)=O` [ADP355, reference compound] (H-[dN]IP[Nva]LY[dS]FA[dS]-NH2) gave a Kd on AdipoR1-Δ88 (SPR, AdipoR1-Δ88 amine-coupled on CM5 chip, 1 to 100 μM peptide, 4°C, 20 mM HEPES pH7.4, 0.025% DDM, 0.0001% CHS, from saturation curves with responses at equilibrium state) greater than 100 µM. The SPR response result on AdipoR1-Δ88 (SPR, AdipoR1-Δ88 on CM5 chip, serial concentrations 1 to 100 μM, in words) is listed as “very weak SPR responses except 100 μM concentration”. For the same molecule, in the series with AdipoRs, the cellular efficacy entry is reported as “nano molar concentration”.

On to `CC[C@H](C)[C@H](NC(=O)[C@H](CC(N)=O)NC(=O)[C@@H]1CCCN1C(=O)[C@H](Cc1c[nH]cn1)NC(=O)[C@H](Cc1ccc(O)cc1)NC(=O)[C@H](C)NC(=O)[C@H](Cc1ccccc1)NC(=O)[C@H](Cc1ccc(O)cc1)NC(=O)[C@@H](N)Cc1c[nH]c2ccccc12)C(=O)N1CCC[C@H]1C(=O)NCC(=O)N[C@@H](CC(C)C)C(=O)N[C@@H](Cc1c[nH]c2ccccc12)C(=O)N[C@@H](Cc1ccc(O)cc1)C(=O)N[C@@H](Cc1ccccc1)C(=O)O` [BHD43] (H-WYFAYHPNIPGLWYF-OH), for which, in series [1], the AMPK activation result is given as “activated AMPK in a concentration-dependent manner”. Also, at AdipoR1-Δ88, the “SPR screening of designed peptides, selection” value (“SPR screening … selection” for short) is “preliminarily selected”.

Turning to `CC[C@H](C)[C@H](NC(=O)[C@H](CC(N)=O)NC(=O)[C@@H]1CCCN1C(=O)[C@H](Cc1c[nH]cn1)NC(=O)[C@H](Cc1ccc(O)cc1)NC(=O)[C@H](C)NC(=O)[C@H](Cc1ccccc1)NC(=O)[C@H](Cc1ccc(O)cc1)NC(=O)[C@@H](N)Cc1ccccc1)C(=O)N1CCC[C@H]1C(=O)NCC(=O)N[C@@H](CC(C)C)C(=O)N[C@@H](Cc1ccccc1)C(=O)N[C@@H](Cc1ccc(O)cc1)C(=O)N[C@@H](Cc1ccccc1)C(=O)O` [BHD44] (H-FYFAYHPNIPGLFYF-OH), the AMPK activation entry in series [1] is “activated AMPK in a concentration-dependent manner”. The “SPR screening … selection” value at AdipoR1-Δ88 is “preliminarily selected”.

`CC[C@H](C)[C@H](NC(=O)[C@H](CC(N)=O)NC(=O)[C@@H]1CCCN1C(=O)[C@H](Cc1c[nH]cn1)NC(=O)[C@H](Cc1ccc(O)cc1)NC(=O)[C@H](C)NC(=O)[C@H](Cc1ccccc1)NC(=O)[C@H](Cc1ccc(O)cc1)NC(=O)[C@@H](N)Cc1ccc(O)cc1)C(=O)N1CCC[C@H]1C(=O)NCC(=O)N[C@@H](CC(C)C)C(=O)N[C@@H](Cc1ccc(O)cc1)C(=O)N[C@@H](Cc1ccc(O)cc1)C(=O)N[C@@H](Cc1ccccc1)C(=O)O` [BHD1028] (H-YYFAYHPNIPGLYYF-OH): the “SPR screening … selection” value at AdipoR1-Δ88 is “preliminarily selected”. For the same molecule, the “dissociation in the SPR sensorgram” value on AdipoR1-Δ88 (among screened peptides, in words) is “slowest dissociation”. Besides, in the series “Solubility of peptides” (DMSO), the “solubility in DMSO” value was found to be 100 mM (≈ 193 mg/mL). For the same molecule, the solubility in “Solubility of peptides” (aqueous buffer, PBS buffer pH 7.4, unmodified peptide) was no more than 0.05 mM.

Regarding “PEGylated BHD1028: BHD1028 N-terminally mono-PEGylated with 5000 Da polyethylene glycol ({PEG 5000 Da}-YYFAYHPNIPGLYYF)”, the “ACC activation, concentration dependence” value in series [2] is given as “concentration dependent”. For the same molecule, in “Solubility of peptides” (modified with 5000 Da of PEG, in words), the “solubility after PEGylation” value was “much enhanced solubility”.

B1: BHD44 (peptide)
peptide: FYFAYHPNIPGLFYF
notes: designed 15-mer, adiponectin-mimetic; free N- and C-termini as printed (NH2-...-COOH); source: synthetic peptide (AnyGen Ltd.)
B1 had a dissociation constant Kd in series [3] of 4.3 µM.

B2: BHD1028 (peptide)
peptide: YYFAYHPNIPGLYYF
notes: designed 15-mer, adiponectin-mimetic; free N- and C-termini as printed (NH2-...-COOH); also called BHD31; source: synthetic peptide (AnyGen Ltd.)
In turn, B2 had a Kd in series [3] of 16 µM.

B3: BHD43 (peptide)
peptide: WYFAYHPNIPGLWYF
notes: as for B1
For the molecule B3, the Kd in series [3] worked out at 10 µM.

What is called Kd is the equilibrium constant for the complex coming apart. Lower therefore signals higher affinity. Usually solubility stands for how much of the substance goes into solution per volume.

Values taken from PMC6005460, “Discovery of a novel potent peptide agonist to adiponectin receptor 1” (PLoS ONE, 2018).
